1 compound from US12558386B2, “Methods and compositions to modulate antibiotic resistance and gastrointestinal microbiota” (OHIO STATE INNOVATION FOUNDATION, priority 2018, dated 2026) can be followed below.

Molecules are shown by their SMILES. ≈ marks a conversion by molar mass, not a printed value. Some results are limits rather than exact numbers.

In general, MIC refers to the lowest concentration that inhibits growth of the organism.

Experiment [1] concerns Lactobacillus crispatus CG-12. As to the kind of experiment: MIC assessment (TREK Sensititre). In kind it is cell-based. The note with it: Lactobacillus crispatus, CG12; L. crispatus CG-12; read-out: MIC. The method, then:
(§1) Multiple commensal bacterial strains from chicken feces were recovered from Columbia blood Agar base (Becton, […] Dickinson and Company, Franklin Lakes, NJ) supplemented with 5% defibrinated sheep blood (Thermo Scientific™, Grand Island, NY), and maintained in Columbia broth (Becton Dickinson and Company, Franklin Lakes, NJ) and propagated by anaerobic growth at 37° C. The strains were subjected to antibiotic susceptibility assessment followed by strain identification.
(§2) Minimum inhibition concertation (MIC) assessment. A TREK Sensititre diagnostic system (Thermo scientific, Oakwood Village, OH, USA) was used to assess the AR phenotype and MIC of isolated strains. Protocols to use this system can be found on www.trekds.com. Cation-adjusted Mueller Hinton Broth (Becton, Dickinson and Company, MD, USA) was used as basic medium.

The next experiment relates to CG-12. The experiment in a line: Screening of antibiotic susceptible commensal strains on antibiotic agar plates. Type of experiment: cell-based, Lactobacillus crispatus. The note with it: 16 μg/mL tetracycline, 100 μg/mL erythromycin, 32 μg/mL ampicillin, 152 μg/mL sulfamethoxazole with 8 μg/mL trimethoprim. As to the method:
as §1
Screening of antibiotic susceptible commensal strains. Recovered commensal strain isolates (over 1000 colonies) were spotted on Columbia broth (Becton, […] Dickinson and Company, Franklin Lakes, NJ) agar plates containing each of the four antibiotics for rapid assessment of phenotypic resistance profiles. Screened antibiotics included 16 μg/mL tetracycline (Sigma-Aldrich, St. Louis, MO, USA), 100 μg/mL erythromycin (Fisher Scientific, Waltham, MA, USA), 32 μg/mL ampicillin (Sigma-Aldrich), and 152 μg/mL sulfamethoxazole (Sigma-Aldrich) with 8 μg/mL trimethoprim (Sigma-Aldrich).

Experiment [2] deals with Amp^r (ESBL) Escherichia coli strains M9-1, M9-4, M9-12 and 933-36. The experiment in a line: MIC of the Amp^r marker strains (previously identified). Conditions: antibiotic not given. In kind it is cell-based.
The test system of another experiment is E. coli CA-4. The experiment in a line: MIC assessment (TREK Sensititre). The note with it: Escherichia coli, CA4; E. coli CA-4; read-out: MIC. Type of experiment: cell-based, Escherichia coli. As to the method:
(§3) Bacterial strains. Multiple Amp^r strains from feces of broiler chickens without antibiotic treatment were recovered on Columbia blood Agar base (Becton, […] Dickinson and Company, Franklin Lakes, NJ) supplemented with 5% defibrinated sheep blood (Thermo Scientific™, Grand Island, NY). The strains were maintained in Columbia broth (Becton Dickinson and Company, Franklin Lakes, NJ), and propagated by aerobic growth at 37° C., and further subjected to strain identification and Minimum Inhibition Concentration (MIC) assessments.
as §2

Another experiment concerns E. coli CA-20. As to the kind of experiment: MIC assessment (TREK Sensititre). Type of experiment: cell-based, Escherichia coli. The note with it: Escherichia coli, CA20; E. coli CA-20; read-out: MIC. As to the method: as §3, §2
For the next experiment, the system named is E. coli CA-1. The experiment in a line: MIC assessment (TREK Sensititre). In kind it is cell-based, Escherichia coli. Conditions: Escherichia coli, CA1; E. coli CA-1; read-out: MIC.
Excerpt: Bacterial strains. Multiple Amp^r strains from feces of broiler chickens without antibiotic treatment were recovered on Columbia blood Agar base (Becton, […] Dickinson and Company, Franklin Lakes, NJ) supplemented with 5% defibrinated sheep blood (Thermo Scientific™, Grand Island, NY).
as §2

A further experiment has as its system 16S rRNA gene pool. As to the kind of experiment: Chicken model, qPCR of fecal DNA. The note with it: Lc = Lc-Amp group, Amp = Saline-Amp group. Type of experiment: in vivo, Leghorn chicken. From the text: (§4) The chicken model. All procedures were approved by the Institutional Animal Care and Use Committee (protocol No. 2012A00000061, The Ohio State University, Columbus, OH). Leghorn chicken were hatched and maintained at the Ohio Agricultural Research and Development Center (OARDC) poultry research teaching farm (two birds per cage with separate feed and water supply, controlled temperature, filtered air in the room and sterilized feed). Chicken fecal samples were collected on-site and examined for the presence of blaCMY-2 gene pools and microbial profile. Beginning on Day 5 post-hatch, chicken were inoculated with a blaCMY-2^+ E. coli cocktail (0.2 mL/bird, 10^6 CFU/mL) every 24 hours for 4 consecutive days via gavage feeding using 20 ga×1.5 inch animal feeding needle (Fine Science Tools, Foster City, CA, USA). Chickens in non-inoculated control groups were fed with 0.2 mL of saline by the same method. Chickens were then set in cages for 11 days before antibiotic treatment, allowing the microbiota to stabilize.
(§5) Lactobacillus crispatus and antibiotic administration. Lactobacillus crispatus CG-12 was susceptible to ampicillin. To monitor the impact of CG-12 on AR profiles during common ampicillin administration practice, low veterinary Amp dosages (30 mg/kg body weight per day) were selected instead of 300 mg/kg/day. Lactobacillus crispatus CG-12 was administrated in three periods: 1) Day 2 to Day 4 post-hatch; 2) throughout the stabilization; and 3) post-antibiotic challenge on Day 25 to Day 28. During these periods, chickens were inoculated with a Lactobacillus crispatus CG-12 suspension (0.2 mL/bird, 10^6 CFU/mL) every 24 hours for 4 consecutive days via gavage feeding using 20 ga×1.5 inch animal feeding needle (Fine Science Tools, Foster City, CA, USA). Each group contained at least 6 chickens.
(§6) Sample collection. Fresh feces were collected from each chicken on-site in the rearing facility. Fecal samples were collected at the 1st and last day of Lactobacillus inoculation, once a day during the antibiotic administration period, and once every three days during antibiotic withdrawal period up to 14 days from initial antibiotic exposure.
(§7) DNA extraction. Total DNA from chicken fecal samples for real-time quantitative PCR (qPCR) and denaturing gradient gel electrophoresis (DGGE) analyses were extracted according to a published method (Yu and Morrison 2004).
(§8) Real-time quantitative PCR. TaqMan real-time PCR protocol was used to assess blaCMY-2 and 16S rRNA gene pools in total DNA extracted from chicken fecal samples, as described previously (Zhang et al., 2013). […] Each sample was assessed and analyzed in duplicates on a CFX96 system (Bio-Rad, Hercules, CA, USA).

The next experiment has as its system blaCMY-2 gene pool. The experiment in a line: Chicken model, qPCR of fecal DNA. In kind it is in vivo, Leghorn chicken. The note with it: Lc = Lc-Amp group, Amp = Saline-Amp group.
Excerpt: as §4, §5, §6, §7, §8
On the technique in general: Quantitative PCR measures a nucleic acid by following its amplification.

Where [3] appears, read: Day 21, during oral Amp 30 mg/kg/day.

For `CC1(C)S[C@@H]2[C@H](NC(=O)[C@H](N)c3ccccc3)C(=O)N2[C@H]1C(=O)O` [AMP, ampicillin], the MIC in experiment [1] was 0.5 µg/mL (≈ 1.43 µM); in experiment [2] it was greater than 256 µg/mL; in the experiment with E. coli CA-4, greater than 16 µg/mL; in the experiment on E. coli CA-20 it was greater than 16 µg/mL; in the experiment on E. coli CA-1 it was greater than 16 µg/mL. For the same compound, in the experiment on CG-12, the “phenotypic susceptibility on antibiotic agar plates” value is “susceptible”. In addition, the “16S rRNA gene pool” value in the experiment with 16S rRNA gene pool (setting [3]) is 8.5±0.7 log10 (gene copies/g); in the experiment with 16S rRNA gene pool (Day 25, after Amp treatment), 10.5±1.0 log10 (gene copies/g). The blaCMY-2 gene pool with blaCMY-2 gene pool (setting [3]) was 8.7±0.8 log10 (gene copies/g); in the experiment with blaCMY-2 gene pool (Day 25, after Amp treatment), 9.8±0.9 log10 (gene copies/g).
